Where “and” joins values, the source holds several entries; their conditions need not be identical. Equal values may be shown once. Results filed as inconclusive are left out.
Test system: BDF1 mice, B16 melanoma s.c., survival/tumor T/C
Experiment: NCI In Vivo Anticancer Drug Screen. Data for tumor model B16 Melanoma (subcutaneous) in B6D2F1 (BDF1) mice
Procedure: The antitumor activity of compounds was measured in mice bearing transplantable tumors. Survival or tumor size were measured and the results are expressed as the measurement made in the treated group (T) divided by the measurement made in the vehicle treated control group (C). The tumor model used in this assay is B16 Melanoma (subcutaneous) in B6D2F1 (BDF1) mice

Compound: CN1c2c(nc(N)[nH]c2=O)NCC1CCNc1ccc(C(=O)NC(CCC(=O)O)C(=O)O)cc1 (centres undefined)
- T/C (endpoint: median survival time, dose: 600.0 mg/kg/injection, schedule: Q04DX003 (ip), vehicle: saline, higher = longer survival): 118 % of control and 123 % of control
- T/C (endpoint: median survival time, dose: 800.0 mg/kg/injection, schedule: Q01DX001 (ip), vehicle: saline, higher = longer survival): 108 % of control
- T/C (endpoint: median survival time, dose: 800.0 mg/kg/injection, schedule: Q04DX003 (ip), vehicle: saline, higher = longer survival): 113 % of control
- T/C (endpoint: median survival time, dose: 900.0 mg/kg/injection, schedule: Q04DX003 (ip), vehicle: saline, higher = longer survival): 159 % of control
- T/C (endpoint: median survival time, dose: 1200.0 mg/kg/injection, schedule: Q01DX001 (ip), vehicle: saline, higher = longer survival): 119 % of control and 121 % of control
- T/C (endpoint: median survival time, dose: 1800.0 mg/kg/injection, schedule: Q01DX001 (ip), vehicle: saline, higher = longer survival): 121 % of control
- T/C (endpoint: median survival time, dose: 2400.0 mg/kg/injection, schedule: Q01DX001 (ip), vehicle: saline, higher = longer survival): 121 % of control

Compound: C[C@]12C=CC(=O)C=C1CC[C@@H]1[C@@H]2C(=O)C[C@@]2(C)[C@H]1CC[C@]2(O)C(=O)CO
- T/C (endpoint: median survival time, dose: 50.0 mg/kg/injection, schedule: Q01DX009 (ip), vehicle: Klucel (hydroxypropylcellulose) (HPC), higher = longer survival): 95 % of control and 123 % of control
- T/C (endpoint: median survival time, dose: 50.0 mg/kg/injection, schedule: Q01DX009 (ip), vehicle: saline with Tween-80, higher = longer survival): 124 % of control
- T/C (endpoint: median survival time, dose: 50.0 mg/kg/injection, schedule: Q01DX009 (ip), vehicle: saline, higher = longer survival): 116 % of control
- T/C (endpoint: median survival time, dose: 100.0 mg/kg/injection, schedule: Q01DX009 (ip), vehicle: saline with Tween-80, higher = longer survival): 151 % of control
- T/C (endpoint: median survival time, dose: 100.0 mg/kg/injection, schedule: Q01DX009 (ip), vehicle: saline, higher = longer survival): 100 % of control
- T/C (endpoint: median survival time, dose: 200.0 mg/kg/injection, schedule: Q01DX009 (ip), vehicle: saline with Tween-80, higher = longer survival): 157 % of control and 168 % of control
- T/C (endpoint: median survival time, dose: 400.0 mg/kg/injection, schedule: Q01DX009 (ip), vehicle: saline with Tween-80, higher = longer survival): 159 % of control
- T/C (endpoint: median tumor weight (est.), dose: 50.0 mg/kg/injection, schedule: Q01DX009 (ip), vehicle: Klucel (hydroxypropylcellulose) (HPC), higher = larger tumour): 12 % of control and 30 % of control
- T/C (endpoint: median tumor weight (est.), dose: 50.0 mg/kg/injection, schedule: Q01DX009 (ip), vehicle: saline with Tween-80, higher = larger tumour): 26 % of control
- T/C (endpoint: median tumor weight (est.), dose: 100.0 mg/kg/injection, schedule: Q01DX009 (ip), vehicle: Klucel (hydroxypropylcellulose) (HPC), higher = larger tumour): 37 % of control
- T/C (endpoint: median tumor weight (est.), dose: 100.0 mg/kg/injection, schedule: Q01DX009 (ip), vehicle: saline with Tween-80, higher = larger tumour): 41 % of control
- T/C (endpoint: median tumor weight (est.), dose: 200.0 mg/kg/injection, schedule: Q01DX009 (ip), vehicle: Klucel (hydroxypropylcellulose) (HPC), higher = larger tumour): 22 % of control
- T/C (endpoint: median tumor weight (est.), dose: 200.0 mg/kg/injection, schedule: Q01DX009 (ip), vehicle: saline with Tween-80, higher = larger tumour): 12 % of control

Compound: O=c1[nH]cc(F)c(=O)[nH]1
- T/C (endpoint: median survival time, dose: 5.0 mg/kg/injection, schedule: Q01DX009 (ip), vehicle: saline, higher = longer survival): 77 % of control
- T/C (endpoint: median survival time, dose: 8.4 mg/kg/injection, schedule: Q01DX009 (ip), vehicle: saline, higher = longer survival): 100 % of control
- T/C (endpoint: median survival time, dose: 10.0 mg/kg/injection, schedule: Q01DX009 (ip), vehicle: Klucel (hydroxypropylcellulose) (HPC), higher = longer survival): 100 % of control
- T/C (endpoint: median survival time, dose: 10.0 mg/kg/injection, schedule: Q01DX009 (ip), vehicle: saline with Tween-80, higher = longer survival): 98 % of control and 101 % of control
- T/C (endpoint: median survival time, dose: 14.0 mg/kg/injection, schedule: Q01DX009 (ip), vehicle: saline, higher = longer survival): 97 % of control
- T/C (endpoint: median survival time, dose: 20.0 mg/kg/injection, schedule: Q01DX009 (ip), vehicle: Klucel (hydroxypropylcellulose) (HPC), higher = longer survival): 100 % of control
- T/C (endpoint: median survival time, dose: 20.0 mg/kg/injection, schedule: Q01DX009 (ip), vehicle: saline with Tween-80, higher = longer survival): 111 % of control
- T/C (endpoint: median survival time, dose: 23.0 mg/kg/injection, schedule: Q01DX009 (ip), vehicle: saline, higher = longer survival): 107 % of control
- T/C (endpoint: median survival time, dose: 23.0 mg/kg/injection, schedule: Q04DX003 (ip), vehicle: saline, higher = longer survival): 100 % of control
- T/C (endpoint: median survival time, dose: 39.0 mg/kg/injection, schedule: Q04DX003 (ip), vehicle: saline, higher = longer survival): 97 % of control
- T/C (endpoint: median survival time, dose: 40.0 mg/kg/injection, schedule: Q01DX009 (ip), vehicle: saline with Tween-80, higher = longer survival): 98 % of control and 107 % of control
- T/C (endpoint: median survival time, dose: 50.0 mg/kg/injection, schedule: Q04DX003 (ip), vehicle: saline, higher = longer survival): 113 % of control
- T/C (endpoint: median survival time, dose: 65.0 mg/kg/injection, schedule: Q04DX003 (ip), vehicle: saline, higher = longer survival): 86 % of control
- T/C (endpoint: median survival time, dose: 108.0 mg/kg/injection, schedule: Q04DX003 (ip), vehicle: saline, higher = longer survival): 107 % of control
- T/C (endpoint: median tumor weight (est.), dose: 10.0 mg/kg/injection, schedule: Q01DX009 (ip), vehicle: Klucel (hydroxypropylcellulose) (HPC), higher = larger tumour): 97 % of control and 84 % of control
- T/C (endpoint: median tumor weight (est.), dose: 10.0 mg/kg/injection, schedule: Q01DX009 (ip), vehicle: saline with Tween-80, higher = larger tumour): 65 % of control
- T/C (endpoint: median tumor weight (est.), dose: 20.0 mg/kg/injection, schedule: Q01DX009 (ip), vehicle: saline with Tween-80, higher = larger tumour): 56 % of control
- T/C (endpoint: median tumor weight (est.), dose: 40.0 mg/kg/injection, schedule: Q01DX009 (ip), vehicle: Klucel (hydroxypropylcellulose) (HPC), higher = larger tumour): 75 % of control
- T/C (endpoint: median tumor weight (est.), dose: 40.0 mg/kg/injection, schedule: Q01DX009 (ip), vehicle: saline with Tween-80, higher = larger tumour): 39 % of control

Source: PubChem BioAssay AID194 (DTP/NCI, 2004)
